Results from patent publication US9796742B2, “Kinase inhibitors” (Respivert Limited, priority 2012, dated 2017).
Where two headings read alike, the source gives them in different places.

Assays:
[1] = test system: d-U937 cells; assay: LPS-induced TNFα/IL-8 release in d-U937 cells; format: cell-based; settings: Homo sapiens, dU937, LPS-stimulated d-U937 cells
Protocol: U937 cells, a human monocytic cell line, are differentiated to macrophage-type cells by incubation with phorbol myristate acetate (PMA; 100 ng/mL) for 48 to 72 hr. Cells are pre-incubated with final concentrations of test compound for 2 hr and are then stimulated with 0.1 μg/mL of LPS (from E. Coli: O111:B4, Sigma) for 4 hr. The supernatant is collected for determination of TNFα and IL-8 concentrations by sandwich ELISA (Duo-set, R&D systems). The inhibition of TNFα production is calculated as a percentage of that achieved by 10 μg/mL of BIRB796 at each concentration of test compound by comparison against vehicle control. The relative 50% effective concentration (REC50) is determined from the resultant concentration-response curve. The inhibition of IL-8 production is calculated at each concentration of test compound by comparison with vehicle control. The 50% inhibitory concentration (IC50) is determined from the resultant concentration-response curve.

[2] = test system: PBMCs; assay: LPS-induced TNFα/IL-8 release in PBMC cells; format: cell-based; settings: Homo sapiens, LPS-stimulated PBMCs
In short: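 Cytokines (TNFα, IL-8) in supernatants were quantified by sandwich ELISA after a 24 h challenge with 1 ng/mL E. coli LPS at 37° C, 5% CO2. Healthy-donor PBMCs had been exposed to compound for 2 h beforehand. IC50 values were fitted from the concentration-response curves.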

[3] = target: p38 MAPKα (Homo sapiens (Human), UniProt Q16539); assay: p38 MAPKα enzyme inhibition (FRET, Z-LYTE; Method 2); format: biochemical
Chain of p38 MAPKα (Q16539 whole entry): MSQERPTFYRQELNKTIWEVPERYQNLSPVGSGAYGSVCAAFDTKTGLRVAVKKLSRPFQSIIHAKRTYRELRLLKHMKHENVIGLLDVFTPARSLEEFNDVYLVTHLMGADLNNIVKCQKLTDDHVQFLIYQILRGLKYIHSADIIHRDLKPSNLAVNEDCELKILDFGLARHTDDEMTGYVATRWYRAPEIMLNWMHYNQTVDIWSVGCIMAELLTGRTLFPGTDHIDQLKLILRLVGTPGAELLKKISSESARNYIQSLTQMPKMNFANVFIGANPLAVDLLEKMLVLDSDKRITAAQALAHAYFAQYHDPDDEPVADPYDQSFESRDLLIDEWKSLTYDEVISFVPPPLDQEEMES
In short: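 p38 MAPKα (2.5 μL of 200 ng/mL stock) preincubated 2 h at RT with compound, then kinase reaction 1 h at RT with readout via MAPKAP-K2 activation using a Z-LYTE FRET peptide. Protease development 1 h; coumarin/fluorescein emission ratio gives phosphorylation. % inhibition versus uninhibited control; IC50 from concentration-response curve.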

[4] = target: c-Src (Homo sapiens (Human), UniProt P12931); assay: c-Src enzyme inhibition (FRET, Z-LYTE); format: biochemical
Chain of c-Src (P12931 whole entry, looked up): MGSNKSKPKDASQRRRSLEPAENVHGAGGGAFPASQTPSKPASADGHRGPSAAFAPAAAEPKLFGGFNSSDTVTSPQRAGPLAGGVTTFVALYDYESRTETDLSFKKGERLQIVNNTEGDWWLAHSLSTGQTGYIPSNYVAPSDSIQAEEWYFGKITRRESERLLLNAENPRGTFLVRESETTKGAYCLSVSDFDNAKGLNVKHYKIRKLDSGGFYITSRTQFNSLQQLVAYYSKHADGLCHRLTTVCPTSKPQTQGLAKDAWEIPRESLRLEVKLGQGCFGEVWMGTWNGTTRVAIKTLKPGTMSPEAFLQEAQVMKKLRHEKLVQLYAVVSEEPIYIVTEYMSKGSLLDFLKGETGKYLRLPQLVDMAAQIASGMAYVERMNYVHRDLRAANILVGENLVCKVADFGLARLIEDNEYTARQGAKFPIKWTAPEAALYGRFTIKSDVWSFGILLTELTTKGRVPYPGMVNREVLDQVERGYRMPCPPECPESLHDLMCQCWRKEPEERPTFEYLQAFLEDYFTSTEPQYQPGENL
In short: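 Z-LYTE FRET peptide assay with enzyme preincubated with compound for 2 h at RT, then 1 h kinase reaction and 1 h protease development. ATP solutions were 800 μM for c-Src and 60 μM for Syk. Inhibition was taken from the coumarin/fluorescein emission ratio, and IC50 from concentration-response curves.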

Question: `COCCOCCOCCOc1cc(Nc2nccc(Oc3ccc(NC(=O)Nc4cc(C(C)(C)C)nn4-c4cccc(CP(C)(C)=O)c4)c4ccccc34)n2)cc(OC)c1` [Example 60, 1-(3-(tert-Butyl)-1-(3-((dimethylphosphoryl)methyl)phenyl)-1H-pyrazol-5-yl)-3-(4-((2-((3-methoxy-5-(2-(2-(2-methoxyethoxy)ethoxy)ethoxy)phenyl)amino)pyrimidin-4-yl)oxy)-naphthalen-1-yl)urea] was tested. Which IC50 ([1]; IL-8, read-out: IC50 Values for Inhibition of Cytokine Release, dU937 cells IL-8) did it give?
Answer: Its IC50 is 0.4 nM.

Question: And the IC50 ([1]; TNFα (REC50 relative to BIRB796 per method), read-out: IC50 Values for Inhibition of Cytokine Release, dU937 cells TNFα)?
Answer: Its IC50 is 0.2 nM.

Question: What about the IC50 ([2]; IL-8, read-out: IC50 Values for Inhibition of Cytokine Release, PBMCs IL-8) of the same compound?
Answer: Its IC50 is 0.9 nM.

Question: And the IC50 ([2]; TNFα, read-out: IC50 Values for Inhibition of Cytokine Release, PBMCs TNFα)?
Answer: Its IC50 is 0.6 nM.

Question: What about the IC50 [3] of the same compound?
Answer: The IC50 was 71 nM.

Question: And the IC50 [4]?
Answer: The IC50 was 2 nM.
